Measured values taken from patent publication US20100197586A1, “USE OF SECRETIN AND OPTIONALLY URODILATIN AS THERAPEUTIC AGENTS” (priority 2007, published 2010).
Where no end group is shown, it is not given here.

Legend:
HCMV strain AD169 = assay: HCMV plaque assay in MRC-5 cells; details: for inhibition of HCMV plaque formation as compared to the virus control experiment: 10 micrograms per ml, MRC-5 cells, 7-10 days
Interleukin-5 (IL-5) = assay: Th1/Th2 cytokine profiling assay: IL-5; assay type: cell-based, mouse; details: 10 micrograms per ml; Ovalbumin-restimulated spleen cells, 72 hours
[1] = tested on: Primary Human endothelial cells (HUVEC); assay: Endothelial cell migration assay; assay type: cell-based; details: 10 micrograms per ml, 22 hours
Interferon-γ (IFN-γ) = assay: Th1/Th2 cytokine profiling assay: IFN-γ; assay type: cell-based, mouse; details: 10 micrograms per ml; Ovalbumin-restimulated spleen cells, 72 hours; combination 0.95 mole peptide 1 and 1.05 mole peptide 2
Interleukin-2 (IL-2) = assay: Th1/Th2 cytokine profiling assay: IL-2; assay type: cell-based, mouse; details: 10 micrograms per ml, 72 hours
Interleukin-4 (IL-4) = assay: Th1/Th2 cytokine profiling assay: IL-4; assay type: cell-based, mouse; details: 10 micrograms per ml, Ovalbumin-restimulated spleen cells, 72 hours
MRSA = assay: Methicillin Resistant Staphylococcus Aureus (MRSA) assay; details: 10 micrograms per ml; 5×10^5 CFU/mL; combination for instance 0.95 mole peptide 1 and 1.05 mole peptide 2
[2] = tested on: hepatitis B virus (HBV) ayw strain; assay: HBV experimental assay system (HepG2-2.2.15, TaqMan PCR of HBV DNA); assay type: cell-based; details: 10 micrograms per ml; HepG2-2.2.15, six days; combination 0.95 mole peptide 1 and 1.05 mole peptide 2
From the text: HepG2-2.2.15 is a stable cell line containing the hepatitis B virus (HBV) ayw strain genome (ATCC Cat. No. CRL-11997). Antiviral compounds blocking any late step of viral replication such as transcription, translation, pregenome encapsidation, reverse transcription, particle assembly and release can be identified and characterized using this cell line. In this assay, an active compound will reduce the production of secreted HBV from cells, measured by utilizing real time quantitative PCR (TaqMan) assay to directly and accurately measure HBV DNA copies.
HepG2-2.2.15 cells were plated in 96-well microtiter plates. After 16-24 hours the confluent monolayer of HepG2-2.2.15 cells was washed and the medium was replaced with complete medium containing test peptides—10 micrograms per ml—in duplicate. […] Six days following the initial administration of the peptides, the cell culture supernatants was collected, treated with pronase and DNAse and then used in a real-time quantitative TaqMan PCR assay. The PCR-amplified HBV DNA was detected in real-time by monitoring increases in fluorescence signals that result from the exonucleolytic degradation of a quenched fluorescence probe molecule that hybridizes to the amplified HBV DNA. […] Antiviral activity was calculated from the reduction in HBV DNA levels (% virus control). […]

HUVEC = assay: Endothelial tube formation assay; assay type: cell-based, human; details: 10 micrograms per ml, 20 hours, combination peptide 1:peptide 2 1.10 mole:0.90 mole
From the text: Positive control was vehicle only.

[3] = tested on: Tumor Necrosis Factor-α (TNF-α); assay: Th1/Th2 cytokine profiling assay: TNF-α; assay type: cell-based, mouse; details: 10 micrograms per ml; Ovalbumin-restimulated spleen cells, 72 hours; combination 0.95 mole peptide 1 and 1.05 mole peptide 2
HIV-1IIIB = assay: HIV-1 antiviral assay in CEM-SS cells

| Compound | inhibition of the migration of human endothelial cells [1] | change of the production of IFN-γ in murine spleen cells (Interferon-γ (IFN-γ)) | inhibition of HCMV plaque formation as compared to the virus control experiment (HCMV strain AD169) | inhibition of the growth of MRSA (MRSA) | inhibition of HBV replication as compared to the virus control infection [2] | inhibition of the tube formation of human endothelial cells (HUVEC) | change of the production of TNF-alpha in murine spleen cells [3] | antiviral activity of positive control compounds (HIV-1) (HIV-1IIIB) | other results |
| --- | --- | --- | --- | --- | --- | --- | --- | --- | --- |
| Nc1nc(O)c2ncn(COC(CO)CO)c2n1 [Ganciclovir, reference compound] | – | – | – | – | – | – | – | – | antiviral activity of positive control compound (HCMV) (HCMV strain AD169; positive control compound): expected levels of antiviral activity |
| His-Ser-Asp-Gly-Thr-Phe-Thr-Ser-Glu-Leu-Ser-Arg-Leu-Arg-Glu-Gly-Ala-Arg-Leu-Gln-Arg-Leu-Leu-Gln-Gly-Leu-Val-NH2 [Peptide 1] | 2% | did not significantly change | did not inhibit | 100% | 27.6% | 33% | did not significantly change | – | decrease of the production of IL-5 (Interleukin-5 (IL-5)): 45.8%; decrease of the production of IL-2 in murine spleen cells (Interleukin-2 (IL-2); Ovalbumin-restimulated spleen cells of Balb/c mice): 77.7%; change of the production of IL-4 in murine spleen cells (Interleukin-4 (IL-4)): did not significantly change |
| Cc1cn([C@H]2C[C@H](N=[N+]=[N-])[C@@H](CO)O2)c(=O)[nH]c1=O [AZT] | – | – | – | – | – | – | – | expected levels of antiviral activity | – |
| CC(C)(C)NC(=O)[C@@H]1CN(Cc2cccnc2)CCN1C[C@@H](O)C[C@@H](Cc1ccccc1)C(=O)N[C@H]1c2ccccc2C[C@H]1O [indinavir] | – | – | – | – | – | – | – | expected levels of antiviral activity | – |
| Thr-Ala-Pro-Arg-Ser-Leu-Arg-Arg-Ser-Ser-Cys-Phe-Gly-Gly-Arg-Met-Asp-Arg-Ile-Gly-Ala-Gln-Ser-Gly-Leu-Gly-Cys-Asn-Ser-Phe-Arg-Tyr-OH (TAPRSLRRSSCFGGRMDRIGAQSGLGCNSFRY-OH; ends and bridges not checked) [Peptide 2, Urodilatin] | 10% | did not significantly change | did not inhibit | 100% | did not inhibit | 9% | did not significantly change | – | change of the production of IL-2 in murine spleen cells (Interleukin-2 (IL-2); Ovalbumin-restimulated spleen cells, combination 0.95 mole peptide 1 and 1.05 mole peptide 2): did not significantly change; suppression of the production of IL-4 in murine spleen cells (Interleukin-4 (IL-4)): 30.4%; induction of the production of IL-4 (Interleukin-4 (IL-4); combination 0.95 mole peptide 1 and 1.05 mole peptide 2): 59.7% |
